Measurements as given in patent US8269017B2, “Compounds for the treatment of proliferative disorders” (Synta Pharmaceuticals Corporation, priority 2005, dated 2012).
“Also recorded” adds a separate entry of the source. Read-outs that look alike come from different tables or passages of the source.

Experiments:
HL-60 (T-cell leukemia) = assay: In vitro cytotoxicity, MTS assay, HL-60; format: cell-based, human; conditions: Homo sapiens
Method: (§1) The in vitro cytotoxicity of the compounds of the invention was determined in the following human cell lines: HL-60 (T-cell leukemia), MDA-435 and MCF-7 (human breast carcinoma), NCI-H460 and H29 (colon carcinoma), DU145 (prostate carcinoma), and MES-SA and MES-SA/DX5 (uterine sarcoma). MES-SA is a model of uterine sarcoma, and the cell are sensitive to a number of chemotherapeutic agents including doxorubicin, dactinomycin, mitomycin C, taxol and bleomycin, but resistant to vinblastine and cisplatin. MES-SA/Dx5 was established in the presence of increasing concentrations of doxorubicin. […] All cells were purchased from ATCC.
(§2) The cell lines were maintained in RPMI1640 (GIBCO) supplemented with 10% FCS, 100 units/mL penicillin, 100 ug/ml streptomycin, and 2 mM L-glutamine. Cells were split every third day and diluted to a concentration of 2×10^5 cells/mL one day before the experiment was performed. All experiments were performed on exponentially growing cell cultures. Cell densities were 2.5×10^4 cells/mL in all experiments.
(§3) Compounds of the invention were prepared by dissolving the compound at a concentration of 10 mM in 100% DMSO. Final concentrations 10, 1, 0.1, 0.01 and 0.001 μM were obtained by diluting the stock solution directly into the tissue culture medium.

MES-SA (uterine sarcoma) = assay: In vitro cytotoxicity, MTS assay, MES-SA; format: cell-based, human; conditions: Homo sapiens, MES-SA (Uterine Carcinoma)
Method: as §1, §2, §3

[1] = system: MES-SA/DX5 (uterine sarcoma, MDR-1); assay: cells; format: cell-based; conditions: Homo sapiens, MDR1, 72 h, MES/DX5 (MDR-1), MTS assay
Method: as §1, §2, §3

[2] = system: human tumor cell line MDA-MB-435S; assay: Nude mouse xenograft, MDA-MB-435S (Example 10); format: in vivo; conditions: Compound 169 at 2 mg/kg, Compound 174 at 4.55 mg/kg body weight, i.v., 1 time/week, 3 doses
Method: (§4) Seven to eight week old, female Crl:CD-1-nuBR (nude) mice were obtained from Charles River Laboratories (Wilmington, Mass., USA). Animals were housed 4-5/cage in micro-isolators, with a 12 hr/12 hr light/dark cycle, acclimated for at least 1 week prior to use and fed normal laboratory chow ad libitum. Studies were conducted on animals between 8 and 10 weeks of age at implantation. To implant MDA-MB-4355 tumor cells into nude mice, the cells were trypsinized as above, washed in PBS and resusupended at a concentration of 50×10(6) cells/ml in PBS. Using a 27 gauge needle and 1 cc syringe, 0.1 ml of the cell suspension was injected into the corpus adiposum of nude mice. The corpus adiposum is a fat body located in the ventral abdominal vicera in the right quadrant of the abdomen at the juncture of the os coxae (pelvic bone) and the os femoris (femur).
Tumors were then permitted to develop in vivo until the majority reached an average of 100-200 mm^3 in tumor volume, which typically required 2-3 weeks following implantation. […] Tumor volumes (V) were calculated by caliper measurement of the width (W), length (L) and thickness (T) of tumors using the following formula: V=0.5236×(L×W×T). Animals were randomized into treatment groups so that the median tumor volumes of each group were similar at the start of dosing. % T/C values, as a measure of efficacy, were determined as follows: • (i) If ΔT>0: % T/C=[…] • (ii) If ΔT<0: % T/C=(ΔT/T0)×100 • (iii) ΔT=Change in median tumor volume between start of dosing and the end of study. • (iv) ΔC=Change in median tumor volume between start of dosing and the end of study. • (v) T0=Median tumor volume at start of dosing.
(§5) Compounds were formulated in either D5W (Compounds 169 and 174) or DRD (Compound 178). For formulations in D5W, solutions of test articles were prepared by dissolving the appropriate amounts of each compound in 5% dextrose in water (Abbott Laboratories, North Chicago, Ill., USA) by sonication in an ultrasonic water bath. For formulations in DRD, stock solutions of test articles were prepared by dissolving the appropriate amounts of each compound in dimethyl sulfoxide (DMSO) by sonication in an ultrasonic water bath. Stock solutions were prepared weekly, stored at −20° C. and diluted fresh each day for dosing. A solution of 20% Cremophore RH40 (polyoxyl 40 hydrogenated castor oil; BASF Corp., Aktiengesellschaft, Ludwigshafen, Germany) in 5% dextrose in water (Abbott Laboratories, North Chicago, Ill., USA) was also prepared by first heating 100% Cremophore RH40 at 50-60° C. until liquefied and clear, diluting 1:5 with 100% D5W, reheating again until clear and then mixing well. This solution was stored at room temperature for up to 3 months prior to use. […]

[3] = Body weight change in MDA-MB-435S xenograft study (Example 10); format: in vivo, nude mouse; conditions: Compound 169 at 2 and 1 mg/kg, Compound 174 at 4.55 and 2.28 mg/kg body weight, i.v., 1 time per week, 3 doses; Hydrochloride
Method: as §4
as §5, with “use. To prepare DRD formulations for daily dosing, DMSO stock solutions were diluted 1:10 with 20% Cremophore RH40.” for “use.”

[4] = Body weight change in EMT6 tumor growth study; format: in vivo, nude mouse
Method: Seven to eight week old, female Crl:CD-1-nuBR (nude) mice were obtained from Charles River Laboratories (Wilmington, Mass., USA). Animals were housed 4-5/cage in micro-isolators, with a 12 hr/12 hr light/dark cycle, acclimated for at least 1 week prior to use and fed normal laboratory chow ad libitum. Studies were conducted on animals between 8 and 10 weeks of age at implantation. To implant EMT6 tumor cells into nude mice, the cells were trypsinized as above, washed in PBS and resusupended at a concentration of 10×10^6 cells/mL in PBS. Using a 27 gauge needle and 1 cc syringe, 0.1 mL of the cell suspension was injected subcutaneously into the flank of each nude mouse. Tumor-bearing animals were given single intravenous (i.v.) bolus injections of either vehicle or Compound 174 at 10 mL per kg body weight. To measure the effect of the drug treatment on tumor growth rates, tumor volumes were measured 3 days after dosing (FIG. 22).

[5] = system: Africa green monkey kidney fibroblasts (CV1 cells); assay: Microtubule depolymerization in CV-1 cells (anti-tubulin immunofluorescence); format: cell-based; conditions: 24 hr
Method: (§6) Depolymerizing microtubules not only kills dividing tumor cells but also induces disruption of newly generated blood vessels in tumor. The potency of Compound 249 in depolymerizing microtubules was examined in Africa green monkey kidney fibroblasts (CV1 cells) and primary human umbilical vein endothelium cells (HUVEC cells). The cells were treated with drugs (1, 10, 100, and 1000 nM for CV-1 and 1, 5, 10, 50, 100 nM for HUVEC) for 24 hr and fixed with 3% paraformaldehyde followed by cold methanol treatment to preserve both microtubule structures and depolymerized tubulin in the cytoplasm. The cells were stained with anti-tubulin antibody and subsequently fluorescent conjugated secondary antibody to visualize microtubule networks or cytoplasmic tubulin with fluorescent microscopy. As shown in FIG. 20 and FIG. 21, Compound 249 completely depolymerizes MT in a considerable proportion of CV1 cells at 10 nM and HUVEC cells at 1 nM (about 10% for both cell lines; data not shown). At 100 nM for CV1 and 5 nM for HUVEC cells, microtubules were completely depolymerized in nearly 100% cells. Tubulin staining in these cells was shown as cytoplasmic location and no microtubule structures were found in those cells. […] Compound 249 is a potent microtubule depolymerizing drug and HUVEC cells are extremely sensitive to Compound 249's anti-microtubule effect.

[6] = system: primary human umbilical vein endothelium cells (HUVEC cells); assay: Microtubule depolymerization in HUVEC cells (anti-tubulin immunofluorescence); format: cell-based; conditions: 24 hr
Method: as §6

[7] = system: human tumor cell line MDA-MB-435S; assay: Nude mouse xenograft, MDA-MB-435S (Example 9); format: in vivo; conditions: i.v., 3 times per week
Method: FBS was obtained from ATCC and all other reagents were obtained from Invitrogen Corp. (Carlsbad, Calif., USA). […] To inactivate the trypsin, 5 mL of growth media was added and then the contents of the flask were centrifuged to pellet the cells. The supernatant was aspirated and the cell pellet was resuspended in 10 mL of growth media and the cell number determined using a hemocytometer.
Animals were housed 4-5/cage in micro-isolators, with a 12 hr/12 hr light/dark cycle, acclimated for at least 1 week prior to use and fed normal laboratory chow ad libitum.

| Compound | IC50 (HL-60 (T-cell leukemia); HL-60, HL60 (Leukemia), 72 hours, read-out: IC50) [nM] | IC50 (MES-SA (uterine sarcoma); 72 hours, read-out: IC50) [nM] | IC50 [1] [nM] | % T/C [2] [%] | overt toxicity (effect on body weights) [3] | largest average percent change in body weight ([4]; 4.55 mg/kg body weight single i.v., one day after dosing) [%] | body weight lost by any individual animal ([4]; any point over the course of the study) [%] | IC50 (HL-60 (T-cell leukemia); HL-60, 72 h, HL60 (Leukemia)) [nM] | IC50 (MES-SA (uterine sarcoma); MES-SA, 72 h) [nM] | proportion of cells with completely depolymerized microtubules ([5]; 10 nM) | proportion of cells with completely depolymerized microtubules ([5]; 100 nM) [%] | microtubule structure ([6]; 1 nM) | proportion of cells with completely depolymerized microtubules ([6]; 1 nM) | proportion of cells with completely depolymerized microtubules ([6]; 5 nM) [%] | tumor regression ([7]; paclitaxel at 7.5 mg/kg body weight, 10 doses) | tumor growth compared to vehicle ([7]; paclitaxel at 7.5 mg/kg) |
| --- | --- | --- | --- | --- | --- | --- | --- | --- | --- | --- | --- | --- | --- | --- | --- | --- |
| COc1ccc(-c2cnoc2-c2cc(OC)c(OC)c(OC)c2)cc1NC(=O)C(N)Cc1ccccc1.Cl (centres unmarked) [Compound 174, 2-amino-N-(2-methoxy-5-(5-(3,4,5-trimethoxyphenyl)isoxazol-4-yl)phenyl)-3-phenylpropanamide Hydrochloride] | 2 | 0.1 | 0.1 | 25 | not overtly toxic; also recorded: not associated with overt toxicity | −7.3 | ≤ 11 | – | – | – | – | – | – | – | – | – |
| COc1ccc(-c2cnoc2-c2cc(OC)c(OC)c(OC)c2)cc1N [Compound 249, 2-methoxy-5-(5-(3,4,5-trimethoxyphenyl)isoxazol-4-yl)aniline] | – | – | 1 | – | – | – | – | 1 | 1 | about 10% | ~100 | Fragmented microtubules were found | about 10% | ~100 | – | – |
| CC(=O)O[C@H]1C(=O)[C@@]2(C)[C@H]([C@H](OC(=O)c3ccccc3)[C@]3(O)C[C@H](OC(=O)[C@H](O)[C@@H](NC(=O)c4ccccc4)c4ccccc4)C(C)=C1C3(C)C)[C@]1(OC(C)=O)CO[C@@H]1C[C@@H]2O [paclitaxel, Paclitaxel] | – | – | – | – | – | – | – | – | – | – | – | – | – | – | did not | decreased tumor growth |
